Test results from PubChem BioAssay (NCI).
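Following 48 hours of exposure in 96-well plates, responses at five concentrations were used to interpolate endpoints linearly. TGI: concentration producing complete growth inhibition.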

Assays:
Experiment in all cases: inhibition of tumour cell growth, NCI panel, 48 h
HOP-62 NSCLC = test system: HOP-62 NSCLC
MOLT-4 leukemia = test system: MOLT-4 leukemia
TK-10 renal = test system: TK-10 renal
LOX IMVI melanoma = test system: LOX IMVI melanoma
OVCAR-3 ovarian = test system: OVCAR-3 ovarian
NCI-H23 lung = test system: NCI-H23 lung
SNB-19 CNS = test system: SNB-19 CNS
NCI-H460 lung = test system: NCI-H460 lung
M14 melanoma = test system: M14 melanoma
SF-295 CNS = test system: SF-295 CNS
HOP-92 NSCLC = test system: HOP-92 NSCLC
SN12C renal = test system: SN12C renal
SF-268 CNS = test system: SF-268 CNS
NCI-H226 lung = test system: NCI-H226 lung
786-0 renal = test system: 786-0 renal
HT29 colon = test system: HT29 colon

Compound	TGI (HOP-62 NSCLC) [µM]	TGI (MOLT-4 leukemia) [µM]	TGI (TK-10 renal) [µM]	TGI (LOX IMVI melanoma) [µM]	TGI (OVCAR-3 ovarian) [µM]	TGI (NCI-H23 lung) [µM]	TGI (SNB-19 CNS) [µM]	TGI (NCI-H460 lung) [µM]	TGI (M14 melanoma) [µM]	TGI (SF-295 CNS) [µM]	TGI (HOP-92 NSCLC) [µM]	TGI (SN12C renal) [µM]	TGI (SF-268 CNS) [µM]	TGI (NCI-H226 lung) [µM]	TGI (786-0 renal) [µM]	TGI (HT29 colon) [µM]
O=C(/C=C/c1ccccc1)Oc1cccc(Br)c1	> 100	29.8	> 100	> 100	> 100	> 100	> 100	> 100	> 100	68.3	> 100	> 100	> 100	> 100	> 100	> 100
CC(C)=CCC[C@@H](C)C1=CC(=O)C(C)=C(O)C1=O	25.7	> 23.5	15.7	11.9	15.8	21.1	29.4	43.1	17.4	27.3	7.18	22.6	24.3	22.8	17.5	22.5
COc1ccc(CCCN2c3ccccc3Sc3ccccc32)cc1	> 100	> 100	> 100	> 100		> 100	> 100	> 100	> 100	> 100	> 100	> 100	> 100	> 100	> 100	> 100
C[C@@]12C[C@@H](c3ccccc3O1)N1Cc3ccccc3CSC1=N2	> 100	> 100	> 100	> 100	> 100	> 100	> 100	> 100	> 100	> 100	> 100	> 100	> 100	> 100	> 100	> 100
O=C1O[C@H]2C3C4CCC(C4[C@@H]2I)[C@H]13 (stereo partly specified)	> 100	> 100	> 100	> 100	> 100	> 100	> 100	> 100	> 100	> 100	> 100	> 100	> 100	> 100	> 100	> 100
COc1ccc(Cn2c3ccc([N+](=O)[O-])cc3c(=O)n2Cc2ccccn2)cc1	> 100	> 100	> 100	> 100	> 100	> 100	> 100	> 100	> 100	> 100	> 100	> 100	> 100	> 100	> 100	> 100
O=C(N[C@H]1CCC[C@H]1C(=O)Nc1ccc(C(F)(F)F)cc1)OCc1ccccc1	> 100	> 100	> 100	> 100	> 100	> 100	> 100	> 100	> 100	> 100	> 100	> 100	> 100	> 100	> 100	> 100
N#Cc1cc([N+](=O)[O-])ccc1NC(=O)C(=O)C(C(=O)c1ccc2ccccc2c1)C1OCc2ccccc21 (stereo unspecified)	15.6	21.8	45.8	29.5	> 47.6	14.9	21.1	20.5	30.1	23.9	21.6	46.5	47.7	4.46	14.7	32.5
Cc1ccc(NC(=O)/C(=N/NC(=O)C[N+](C)(C)C)c2nc3ccccc3[nH]c2=O)cc1	> 100	> 100	> 100	> 100	> 100	> 100	> 100	> 100	> 100	> 100	> 100	> 100	> 100	> 100	> 100	> 100
CN(C)C=NCC(O)c1ccccc1 (stereo unspecified)	> 100	> 100	> 100	> 100	> 100	> 100	> 100	> 100	> 100		> 100	> 100	> 100	> 100	> 100	> 100
CCOC(OCC)C(CC)[Se]c1ccccc1 (stereo unspecified)	> 100	> 100	> 100	21.6	> 100	73.9	> 100	> 100	93.7	> 100	> 100	> 100	> 100	> 100	> 100	> 100
CCOC(=O)C(NC(=O)CC)(Nc1ccc(S(=O)(=O)Nc2ccc(OC)nn2)cc1)C(F)(F)F (stereo unspecified)	> 100	> 100	> 100	> 100	> 100	> 100	> 100	> 100	> 100	> 100	> 100	> 100	> 100	> 100	> 100	> 100
COc1ccc(C2C(C#N)=C(S)N(C3OC(CO)C(O)C(O)C3O)C(C)=C2C(C)=O)cc1 (stereo unspecified)	> 100	> 100	> 100	> 100	> 100	> 100	> 100	> 100	> 100	> 100	> 100	> 100	> 100	> 100	> 100	> 100
CCN(CC)c1ccc2cc(C(N)=O)c(=Nc3ccc(F)cc3)oc2c1	> 100	> 100	44.7	> 100	> 100	> 100	> 100	> 100	> 100	> 100	> 100	> 100	> 100	> 100	> 100	> 100
CCCC(=O)c1ccc(=O)n(C)c1	> 100	> 100	> 100	> 100	> 100	> 100	> 100	> 100	> 100	> 100	> 100	> 100	> 100	> 100	> 100	> 100
Cn1nc2ccc3nccc(NCCNCCO)c3c2n1	> 100	69	> 100	43.1	> 100	> 100	> 100	45.2	> 100	> 100	> 100	> 100	> 100	85.8	> 100	70
COc1ccc(N2C(=O)C3c4[nH]c5ccccc5c4C4c5ccccc5CC4C3C2=O)cc1 (stereo unspecified)	> 100	> 100	> 100	> 100	> 100	> 100	> 100	> 100	> 100	> 100	> 100	> 100	> 100	> 100	> 100	> 100
CC1=CC(=O)/C(=C/n2c(=S)[nH]c3cc(C)ccc32)C(=O)O1	> 100	> 100	> 100	> 100	> 100	> 100	> 100	> 100	> 100	> 100	> 100	> 100	> 100	> 100	> 100	> 100
NC1=Nc2ccccc2Sc2nc3ccccc3n21	> 100	> 100	> 100	> 100	> 100	> 100	> 100	> 100	82.4	> 100	> 100	> 100	> 100	> 100	5.23	31.3
COc1cc(/C=C/C(=N\NC(=S)NN)c2sc(NNC(C)=O)nc2C)ccc1O	> 100	> 100	> 100	> 100	> 100	> 100	> 100	> 100	> 100	> 100	> 100	> 100	> 100	> 100	> 100	> 100
COC1=CC(=O)c2nc3ccccc3c3ccnc1c23	> 44.8	13	> 66.9	22.7	> 21.4	16	> 64.9	8.33	13.7	19.7	48	> 45.1	> 44.2	33	> 48.7	12.5
CN(C)CC1CCCc2ccccc2C1=O (stereo unspecified)	33.7		14.7	4.49	3.57	15.2	26.4	39.9	3.42	32.5	34.8	24.2	5.55	48.8	2.8	3.38
CCOc1ccc(NCC2CC/C(=C\c3ccc(Cl)cc3)C2=O)cc1 (stereo unspecified)	> 100	69.8	> 65.6	35.4	> 51.9	> 73.4	> 100	> 100	50.6	> 100	41.6	> 60.3	> 86.7	> 100	25.8	> 56.2
COc1ccc(N=Nc2c(-c3ccccc3)nn(C(=O)CC(=O)Nc3ccccc3Cl)c2-c2ccccc2)cc1	> 100	8.85	> 100	> 100	> 100	> 100	> 100	> 100	> 100	> 100	> 100	> 100	> 100	> 100	> 100	> 100
COc1ccc(N2N=NN(C(C)C)/C2=C(/Cl)c2nnnn2-c2ccc(OC)cc2)cc1	37.1	14.8	30.1	6.82	24.5	33	31.6	36.6	21.9	30.4	6.19	28.2	34.6	42.2	7.06	24.4
CN(/N=C/c1ccc(Cl)cc1)C1=NCCCCN1	> 100	> 100	> 100	> 100	> 100	> 100	> 100	> 100	57.4	> 100	> 100	> 100	> 100	> 100	> 100	> 100
Nc1ccccc1OCCCOc1ccccc1N	> 100	> 100	> 100	> 100	> 100	> 100	> 100	> 100	> 100	> 100	> 100	> 100	> 100	> 100	> 100	> 100
COc1cc(O)cc(O)c1C(=O)CC(Cl)(Cl)Cl	> 100	> 100	> 100	> 100	> 100	> 100	> 100	> 100	> 100	> 100	> 100	> 100	> 100	> 100	> 100	> 100
CC1=NN(C(=O)Cc2ccccc2)C(=O)/C1=C\c1ccccc1O	> 100	> 100	> 100	> 100	> 100	> 100	> 100	> 100	> 100	> 100	> 100	> 100	> 100	> 100	> 100	> 100
N#Cc1ccc2[nH]c3c(c2c1)CC(=O)Nc1ccccc1-3	> 100	> 100	> 100	> 100	> 100	> 100	> 100	> 100	> 100	> 100	> 100		> 100	> 100	> 100	> 100
